The values that follow come from US8420657B2 (Novartis AG, priority 2008, dated 2013).

Molecules are shown by their SMILES. pIC50: −log10 of the molar value. A value given as a limit tells only on which side of the number the result lay.

The target of assay [1] is T1, GST-JAK2(808-1132) (Homo sapiens, UniProt O60674).
T1 construct: GST-JAK2(808-1132); purchased Invitrogen (Carlsbad, USA) #4288
The assay is described as follows: JAK2 kinase assay (Caliper mobility shift, LabChip 3000). It counts as biochemical. In outline: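 Recombinant GST-JAK2(808-1132) kinase domain with FITC-labelled JAK3tide peptide substrate and ATP; 60 min at 30 °C, EDTA stop. Substrate/product ratio read by microfluidic mobility shift; compounds at 8 final concentrations, 10 to 0.003 μM.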

Assay [2] has as its system JAK1/JAK2-dependent nuclear translocation of STAT1-GFP in HT1080 fibrosarcoma cells. The assay is described as follows: STAT1 nuclear translocation assay (Cellomics), IFN-γ stimulated HT1080 STAT1-GFP cells. It counts as cell-based. Conditions: Homo sapiens, HT-1080, STAT1 translocation pathway. From the text:
The medium-throughput (96-well format) cellular automated fluorescence microscopy Cellomics assay can be routinely used to assess the functional activation of Janus Kinases (JAKs), based on the nuclear translocation of their substrate, Signal Transducer and Activator of Transcription (STAT). Nuclear translocation can be monitored either in HT1080 fibrosarcoma cells stably transfected with STAT1 fused to Green Fluorescence Protein (GFP) or in U-2 OS osteosarcoma cells stably transfected with STAT5 fused to Green Fluorescence Protein (GFP). Stimulation of HT1080 cells with interferon-γ (IFN-γ) results in JAK1/JAK2-dependent nuclear translocation of STAT1-GFP, whereas stimulation of U-2 OS cells with recombinant human erythropoietin (rhEpo) results in JAK2-dependent nuclear translocation of STAT5-GFP, both of which can be quantified using the Cellomics Cyto/NucTrans software package. This assay may be used to provide an assessment of the nuclear-cytoplasmic differential (NCD) of STAT-GFP using Hoechst dye to define the boundaries of the nucleus.
HT1080 fibrosarcoma cells may be obtained from ATCC and can be cultured in alpha Modified Eagle Medium with 10% FCS. Cells can be transfected with pEGFP-N2 STAT1 using Fugene 6 Transfection Reagent following the manufacturers' protocol. 24 hours after transfection the medium can be replaced and selected in 1 mg/ml Geneticin.
Compounds can be dissolved in DMSO to a final stock concentration of 10 mM and stored as aliquots at 4° C. Compounds may be pre-diluted in 100% DMSO at 10 mM, 3 mM 1 mM, 0.3 mM, 0.1 mM, 0.03 mM, 0.01 mM and 0.003 mM. Subsequently, compounds may be diluted in medium and added in 50 μl to the cells. The final compound concentrations tested may be 10 μM, 3 μM 1 μM, 0.3 μM, 0.1 μM, 0.03 μM, 0.01 μM and 0.003 μM and the final DMSO concentration can be 0.1%.
HT1080 STAT1-GFP cells may be seeded at a density of 10,000 cells per well in clear-bottom black 96-well Packard View-Plates™. 16-24 hours later, the cells can be treated for 2 hours with 100 ng/ml IFN-γ, washed twice in pre-warmed PBS and fixed in 200 μl of pre-warmed fixation solution (PBS, 3.7% Formaldehyde) for 10 minutes. The plates may be washed twice in 200 μl PBS and incubated, protected from light, in 100 μl of DNA-staining solution (PBS, 0.5 μg/ml Hoechst-33342) for 1 minute. The plates may then be washed once in PBS, and 200 μl PBS finally added per well. The plates, being finally covered with a black adhesive, may be either read directly or stored at 4° C. for later imaging. Where appropriate, the compounds may be added 30 min before stimulation with IFN-γ.
The plates can be read on a Cellomics® ArrayscanII automated fluorescence microscope plate reader equipped with a Mercury-Xenon white light illumination source and a Zeiss Axiovert inverted microscope, using the XF100 dichroic/emission filter cube and matching excitation filters, 10× magnification, and a 0.3 numerical aperture objective. Image acquisition and analysis can be performed using a customized protocol based on the ‘NuclearTranslocation’ Bioapplication. For each well, multiple images (fields) can be acquired until a minimum of 1000 cells are counted using two 2 channels: Channel 1 (Hoechst)=focus+nuclear mask, Channel 2 (GFP)=signal quantification in mask areas as outlined below. Nuclei may be first identified based on the Hoechst staining and a mask generated for each nucleus that then serves as a template to generate a circle (eroded inwards by 1 pixel) and a 3 pixel-wide collar-like ring (off-set outwards by 1 pixel), in which the nuclear and cytoplasmic intensity of GFP, respectively, are quantified in the corresponding channel. High content analysis yields numerous measurements per cell and the GFP intensity differential between the nuclear and the cytoplasmic masks may be chosen as a measure of sub-cellular STAT-GFP relocation. The resulting values may be averaged for all cells in the well to return a single measurement plus standard deviation. […]

T1 sequence (O60674 808-1132): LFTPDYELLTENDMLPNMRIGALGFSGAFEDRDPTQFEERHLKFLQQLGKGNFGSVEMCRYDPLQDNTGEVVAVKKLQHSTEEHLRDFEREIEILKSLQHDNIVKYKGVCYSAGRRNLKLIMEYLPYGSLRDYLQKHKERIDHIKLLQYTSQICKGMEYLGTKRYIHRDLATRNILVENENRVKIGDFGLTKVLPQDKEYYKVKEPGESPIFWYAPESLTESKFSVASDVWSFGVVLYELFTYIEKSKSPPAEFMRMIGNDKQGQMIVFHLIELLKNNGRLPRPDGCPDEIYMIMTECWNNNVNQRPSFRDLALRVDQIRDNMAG

Usually pIC50 stands for the IC50 on a negative log10 scale, so that one unit is a factor of ten. Regarding `CC(C)Oc1ccc(Nc2ncc3ccn(-c4ccc(C(C)N5CCOCC5)cc4)c3n2)cc1` (racemic) [Example 193, (4-Isopropoxy-phenyl)-{7-[4-(1-morpholin-4-yl-ethyl)-phenyl]-7H-pyrrolo[2,3-d]pyrimidin-2-yl}-amine], the pIC50 in assay [1] is 8.08; in assay [2], 6.45.

Turning to `C[C@@H]1CN(Cc2ccc(Nc3ncc4ccn(-c5cc(F)c(CN6CCOCC6)c(F)c5)c4n3)cc2)[C@@H](C)CN1` (racemic) [Example 260, [7-(3,5-Difluoro-4-morpholin-4-ylmethyl-phenyl)-7H-pyrrolo[2,3-d]pyrimidin-2-yl]-[4-((2S,5R)-2,5-dimethyl-piperazin-1-ylmethyl)-phenyl]-amine], the pIC50 is 8.30 in assay [1] and 6.55 in assay [2].

`C[C@@H]1CN(Cc2ccc(Nc3ncc4ccn(-c5cc(F)c(C(=O)N6CCOCC6)c(F)c5)c4n3)cc2)[C@@H](C)CN1` (racemic) [Example 261, (4-{2-[4-((2S,5R)-2,5-Dimethyl-piperazin-1-ylmethyl)-phenylamino]-pyrrolo[2,3-d]pyrimidin-7-yl}-2,6-difluoro-phenyl)-morpholin-4-yl-methanone]: the pIC50 in assay [1] is 7.92; in assay [2], 6.74.

Take `C[C@@H]1CN[C@@H](C)CN1c1ccc(Nc2ncc3ccn(-c4cc(F)c(C(=O)N5CCOCC5)c(F)c4)c3n2)cn1` (racemic) [Example 269, (4-{2-[6-((2R,5S)-2,5-Dimethyl-piperazin-1-yl)-pyridin-3-ylamino]-pyrrolo[2,3-d]pyrimidin-7-yl}-2,6-difluoro-phenyl)-morpholin-4-yl-methanone]: the figures for the pIC50 in assay [1] and in assay [2] were 8.00 and 6.33, respectively.

With `C[C@@H]1CN[C@@H](C)CN1c1ccc(Nc2ncc3ccn(-c4cc(F)c(CN5CCOCC5)c(F)c4)c3n2)cn1` (racemic) [Example 271, [7-(3,5-Difluoro-4-morpholin-4-ylmethyl-phenyl)-7H-pyrrolo[2,3-d]pyrimidin-2-yl]-[6-((2R,5S)-2,5-dimethyl-piperazin-1-yl)-pyridin-3-yl]-amine], the pIC50 in assay [1] was 8.51; in assay [2] it was 7.19.

As for `Cc1ccc(Nc2ncc3ccn(-c4cc(F)c(CN5CCOCC5)c(F)c4)c3n2)cc1CN1CCNC2(CC2)C1` [Example 373, [3-(4,7-Diaza-spiro[2.5]oct-7-ylmethyl)-4-methyl-phenyl]-[7-(3,5-difluoro-4-morpholin-4-ylmethyl-phenyl)-7H-pyrrolo[2,3-d]pyrimidin-2-yl]-amine], the pIC50 in assay [1] was 8.37.

Turning to `Cc1ccc(Nc2ncc3ccn(-c4ccc(C(=O)N5CCOCC5)c(F)c4)c3n2)cc1CN1CCNC2(CC2)C1` [Example 374, (4-{2-[3-(4,7-Diaza-spiro[2.5]oct-7-ylmethyl)-4-methyl-phenylamino]-pyrrolo[2,3-d]pyrimidin-7-yl}-2-fluoro-phenyl)-morpholin-4-yl-methanone], the pIC50 in assay [1] was 8.00.

For the molecule `O=C1NC(c2ccc(Nc3ncc4ccn(-c5cc(F)c(CN6CCOCC6)c(F)c5)c4n3)cc2)CN2CCCCC12` (stereo not drawn) [Example 389, 3-{4-[7-(3,5-Difluoro-4-morpholin-4-ylmethyl-phenyl)-7H-pyrrolo[2,3-d]pyrimidin-2-ylamino]-phenyl}-hexahydro-pyrido[1,2-a]pyrazin-1-one], in assay [1], the negative-log IC50 (pIC50) is at least 8.52.

On to `Cc1ccc(Nc2ncc3ccn(-c4cc(F)c(CN5CCOCC5)c(F)c4)c3n2)cc1COC1CNC1` [Example 420, [3-(Azetidin-3-yloxymethyl)-4-methyl-phenyl]-[7-(3,5-difluoro-4-morpholin-4-ylmethyl-phenyl)-7H-pyrrolo[2,3-d]pyrimidin-2-yl]-amine], for which the pIC50 in assay [1] was at least 8.52.

`Cc1ccc(Nc2ncc3ccn(-c4ccc(C(=O)N5CCOCC5)cc4)c3n2)cc1CN1CCN(C)CC1` [Example 437, (4-{2-[4-Methyl-3-(4-methyl-piperazin-1-ylmethyl)-phenylamino]-pyrrolo[2,3-d]pyrimidin-7-yl}-phenyl)-morpholin-4-yl-methanone]: in assay [1], the pIC50 is 8.48.

`CCc1ccc(-n2ccc3cnc(Nc4ccc(N5CCN(C)CC5)nc4)nc32)cc1` [Example 438, [7-(4-Ethyl-phenyl)-7H-pyrrolo[2,3-d]pyrimidin-2-yl]-[6-(4-methyl-piperazin-1-yl)-pyridin-3-yl]-amine]: in assay [1], the pIC50 was at least 8.52.

Consider `Cc1cc(C#N)ccc1-n1ccc2cnc(Nc3ccc(N4CCN(C)CC4)nc3)nc21` [Example 439, 3-Methyl-4-{2-[6-(4-methyl-piperazin-1-yl)-pyridin-3-ylamino]-pyrrolo[2,3-d]pyrimidin-7-yl}-benzonitrile], for which the pIC50 in assay [1] was 7.72.

For `O=S1(=O)CCN(Cc2c(F)cc(-n3ccc4cnc(Nc5ccnc(N6CCNC7(CC7)C6)c5)nc43)cc2F)CC1` [Example 442], the pIC50 in assay [1] was at least 8.52.

With `CN1CCN(c2ccc(Nc3ncc4ccn(-c5cc(F)c(C#N)c(F)c5)c4n3)cn2)CC1` [Example 445, 2,6-Difluoro-4-{2-[6-(4-methyl-piperazin-1-yl)-pyridin-3-ylamino]-pyrrolo[2,3-d]pyrimidin-7-yl}-benzonitrile], the pIC50 in assay [1] is 7.37.

Take `Cc1ccc(Nc2ncc3ccn(-c4cc(F)c(CN5CCOCC5)c(F)c4)c3n2)cc1CN1CCC2(CCN(C)C2)C1` (stereo not drawn) [Example 450, [7-(3,5-Difluoro-4-morpholin-4-ylmethyl-phenyl)-7H-pyrrolo[2,3-d]pyrimidin-2-yl]-[4-methyl-3-(7-methyl-2,7-diaza-spiro[4.4]non-2-ylmethyl)-phenyl]-amine]: in assay [1], the pIC50 was at least 8.52.

As to `Cc1cc(Nc2ncc3ccn(-c4cc(F)c(CN5CCOCC5)c(F)c4)c3n2)ccc1CN1CCNCC1` [Example 460, [7-(3,5-Difluoro-4-morpholin-4-ylmethyl-phenyl)-7H-pyrrolo[2,3-d]pyrimidin-2-yl]-(3-methyl-4-piperazin-1-ylmethyl-phenyl)-amine], the negative-log IC50 (pIC50) in assay [1] is at least 8.52.

Regarding `Cc1cc(Nc2ncc3ccn(-c4cc(F)c(CN5CCOCC5)c(F)c4)c3n2)ccc1CN1C[C@@H](C)N[C@@H](C)C1` [Example 461, [7-(3,5-Difluoro-4-morpholin-4-ylmethyl-phenyl)-7H-pyrrolo[2,3-d]pyrimidin-2-yl]-[4-(cis-3,5-dimethyl-piperazin-1-ylmethyl)-3-methyl-phenyl]-amine], in assay [1], the pIC50 is at least 8.52.

As to `Cc1ccc(Nc2ncc3ccn(-c4cc(F)c(CN5CCOCC5)c(F)c4)c3n2)cc1Cn1cc(CCO)cn1` [Example 467, 2-(1-{5-[7-(3,5-Difluoro-4-morpholin-4-ylmethyl-phenyl)-7H-pyrrolo[2,3-d]pyrimidin-2-ylamino]-2-methyl-benzyl}-1H-pyrazol-4-yl)-ethanol], the pIC50 in assay [1] was 8.34.

On to `Cc1cnn(Cc2cc(Nc3ncc4ccn(-c5cc(F)c(CN6CCOCC6)c(F)c5)c4n3)ccc2C)c1` [Example 481, [7-(3,5-Difluoro-4-morpholin-4-ylmethyl-phenyl)-7H-pyrrolo[2,3-d]pyrimidin-2-yl]-[4-methyl-3-(4-methyl-pyrazol-1-ylmethyl)-phenyl]-amine], for which the pIC50 in assay [1] was 8.29.
